Patent publication US5660842A, “Inhibition of helicobacter” (Bristol-Myers Squibb Company, priority 1995, dated 1997)
Converted amounts (≈) assume the structure as drawn. Like-named read-outs stand apart in the source and are kept apart here.

Experiments:
Helicobacter pylori [1] = test: Viability of H. pylori after 1 hour in prototype nutritional compositions containing FFA or MG (Example 3, Table 6); format: cell-based, Helicobacter pylori (ATCC 43629); conditions: for Change in viable cell number: 1 hour
Helicobacter pylori [2] = test: Minimal inhibitory concentration (MIC) for H. pylori (Example 5); format: cell-based; conditions: Helicobacter pylori, read-out: MIC
Helicobacter pylori [3] = test: Bactericidal activity of MG and FFA of varying chain length (Example 4, FIG. 1); format: cell-based, Helicobacter pylori HP-4 (ATCC 43629); conditions: FFA tested C4:0 to C17:0; 1 hour
Helicobacter pylori [4] = format: cell-based, Helicobacter pylori (HP-2, HP-4, HP-5); conditions: for Frequency of resistant mutants (number of spontaneous mutants): ~1 × 10^8 CFU
[5] = concentrations as low as two times the MIC

SMILES: CCCCCCCCCCCC(=O)O [Lauric Acid, lauric acid]
- Change in viable cell number (Helicobacter pylori [1]; Nutrament (Formulation II), 20 mM): -0.42 LOG CFU/mL
- Change in viable cell number (Helicobacter pylori [1]; Sustacal (Formulation I), 5 mM): 0.00 LOG CFU/mL
- Change in viable cell number (Helicobacter pylori [1]; Sustacal (Formulation I), 10 mM): 0.05 LOG CFU/mL
- Change in viable cell number (Helicobacter pylori [1]; Sustacal (Formulation I), 20 mM): -3.33 LOG CFU/mL
- Change in viable cell number (Helicobacter pylori [1]; Ultracal (Formulation III), 5 mM): 0.33 LOG CFU/mL
- Change in viable cell number (Helicobacter pylori [1]; Ultracal (Formulation III), 10 mM): -1.05 LOG CFU/mL
- Change in viable cell number (Helicobacter pylori [1]; Ultracal (Formulation III), 20 mM): -3.96 LOG CFU/mL
- Inhibition in nutritional compositions (Helicobacter pylori [1]; lower levels than 20 mM): not inhibitory
- MIC (Helicobacter pylori [2]; Table 7): 50 mg/L (≈ 250 µM)
- MIC (Helicobacter pylori [2]; preliminary studies): ~50 mg/L (≈ 250 µM)
- Bactericidal activity for H. pylori (Helicobacter pylori [3]): showed bactericidal activity
- Frequency of resistance (Helicobacter pylori [4]; [5]): < 1×10^-8
- Resistant variants of H. pylori (Helicobacter pylori [4]; [5]): no resistant variants of H. pylori were found
- Frequency of resistant mutants (number of spontaneous mutants) (Helicobacter pylori [4]; strain 43529 (so in the source), 2 × MIC): < 1
- Frequency of resistant mutants (number of spontaneous mutants) (Helicobacter pylori [4]; strain 43529 (so in the source), 5 × MIC): < 1
- Frequency of resistant mutants (number of spontaneous mutants) (Helicobacter pylori [4]; strain 43529 (so in the source), 10 × MIC): < 1
- Frequency of resistant mutants (number of spontaneous mutants) (Helicobacter pylori [4]; strain 43579, 2 × MIC): < 1
- Frequency of resistant mutants (number of spontaneous mutants) (Helicobacter pylori [4]; strain 43579, 5 × MIC): < 1
- Frequency of resistant mutants (number of spontaneous mutants) (Helicobacter pylori [4]; strain 43579, 10 × MIC): < 1
- Frequency of resistant mutants (number of spontaneous mutants) (Helicobacter pylori [4]; strain 49503, 2 × MIC): < 1
- Frequency of resistant mutants (number of spontaneous mutants) (Helicobacter pylori [4]; strain 49503, 5 × MIC): < 1
- Frequency of resistant mutants (number of spontaneous mutants) (Helicobacter pylori [4]; strain 49503, 10 × MIC): < 1
